# Reference: the NIST ThermoML archive (doi:10.1016/j.tca.2012.03.001)
# ± gives the expanded uncertainty stated by the source.
# What was measured:
# [1] = Liquid; for viscosity: 101 kPa; for mass density: 101.33 kPa, Pycnometric method
# [2] = xn = mol fraction of the nth substance listed; conditions: 101 kPa, Liquid
compound,measurement,setting,value
COCCO [2-methoxyethan-1-ol],viscosity,[1]; 303.15 K,1.421 ± 0.022 mPa·s
same,mass density,[1]; 303.15 K,955.72 ± 0.75 kg/m3
same,viscosity,[1]; 308.15 K,1.249 ± 0.02 mPa·s
same,mass density,[1]; 308.15 K,951.11 ± 0.77 kg/m3
same,viscosity,[1]; 313.15 K,1.173 ± 0.019 mPa·s
same,mass density,[1]; 313.15 K,946.27 ± 0.78 kg/m3
same,viscosity,[1]; 318.15 K,1.079 ± 0.017 mPa·s
same,mass density,[1]; 318.15 K,941.64 ± 0.78 kg/m3
same,viscosity,[1]; 323.15 K,0.9347 ± 0.015 mPa·s
same,mass density,[1]; 323.15 K,936.88 ± 0.79 kg/m3
CCOCCO [2-ethoxyethan-1-ol],viscosity,[1]; 303.15 K,1.654 ± 0.025 mPa·s
same,mass density,[1]; 303.15 K,921.19 ± 0.76 kg/m3
same,viscosity,[1]; 308.15 K,1.482 ± 0.023 mPa·s
same,mass density,[1]; 308.15 K,916.43 ± 0.77 kg/m3
same,viscosity,[1]; 313.15 K,1.306 ± 0.02 mPa·s
same,mass density,[1]; 313.15 K,911.58 ± 0.72 kg/m3
same,viscosity,[1]; 318.15 K,1.231 ± 0.019 mPa·s
same,mass density,[1]; 318.15 K,907.76 ± 0.7 kg/m3
same,viscosity,[1]; 323.15 K,1.116 ± 0.018 mPa·s
same,mass density,[1]; 323.15 K,903.45 ± 0.73 kg/m3
CCOCCO [2-ethoxyethan-1-ol] + NC=O,viscosity,"[2]; 303.15 K, x2 = 0",1.654 ± 0.025 mPa·s
same,viscosity,"[2]; 303.15 K, x2 = 0.0975",1.996 ± 0.03 mPa·s
same,viscosity,"[2]; 303.15 K, x2 = 0.2009",2.306 ± 0.035 mPa·s
same,viscosity,"[2]; 303.15 K, x2 = 0.2984",2.58 ± 0.038 mPa·s
same,viscosity,"[2]; 303.15 K, x2 = 0.4047",2.873 ± 0.043 mPa·s
same,viscosity,"[2]; 303.15 K, x2 = 0.5054",3.162 ± 0.047 mPa·s
same,viscosity,"[2]; 303.15 K, x2 = 0.6055",3.409 ± 0.051 mPa·s
same,viscosity,"[2]; 303.15 K, x2 = 0.7092",3.509 ± 0.052 mPa·s
same,viscosity,"[2]; 303.15 K, x2 = 0.8063",3.495 ± 0.052 mPa·s
same,viscosity,"[2]; 303.15 K, x2 = 0.9074",3.306 ± 0.05 mPa·s
same,viscosity,"[2]; 308.15 K, x2 = 0",1.482 ± 0.023 mPa·s
same,viscosity,"[2]; 308.15 K, x2 = 0.0975",1.79 ± 0.027 mPa·s
same,viscosity,"[2]; 308.15 K, x2 = 0.2009",2.017 ± 0.03 mPa·s
same,viscosity,"[2]; 308.15 K, x2 = 0.2984",2.24 ± 0.034 mPa·s
same,viscosity,"[2]; 308.15 K, x2 = 0.4047",2.49 ± 0.037 mPa·s
same,viscosity,"[2]; 308.15 K, x2 = 0.5054",2.735 ± 0.041 mPa·s
same,viscosity,"[2]; 308.15 K, x2 = 0.6055",2.968 ± 0.044 mPa·s
same,viscosity,"[2]; 308.15 K, x2 = 0.7092",3.043 ± 0.046 mPa·s
same,viscosity,"[2]; 308.15 K, x2 = 0.8063",3.007 ± 0.045 mPa·s
same,viscosity,"[2]; 308.15 K, x2 = 0.9074",2.867 ± 0.044 mPa·s
same,viscosity,"[2]; 313.15 K, x2 = 0",1.306 ± 0.02 mPa·s
same,viscosity,"[2]; 313.15 K, x2 = 0.0975",1.564 ± 0.024 mPa·s
same,viscosity,"[2]; 313.15 K, x2 = 0.2009",1.786 ± 0.027 mPa·s
same,viscosity,"[2]; 313.15 K, x2 = 0.2984",1.986 ± 0.03 mPa·s
same,viscosity,"[2]; 313.15 K, x2 = 0.4047",2.221 ± 0.034 mPa·s
same,viscosity,"[2]; 313.15 K, x2 = 0.5054",2.466 ± 0.037 mPa·s
same,viscosity,"[2]; 313.15 K, x2 = 0.6055",2.659 ± 0.04 mPa·s
same,viscosity,"[2]; 313.15 K, x2 = 0.7092",2.718 ± 0.041 mPa·s
same,viscosity,"[2]; 313.15 K, x2 = 0.8063",2.692 ± 0.041 mPa·s
same,viscosity,"[2]; 313.15 K, x2 = 0.9074",2.583 ± 0.04 mPa·s
same,viscosity,"[2]; 318.15 K, x2 = 0",1.231 ± 0.019 mPa·s
same,viscosity,"[2]; 318.15 K, x2 = 0.0975",1.437 ± 0.022 mPa·s
same,viscosity,"[2]; 318.15 K, x2 = 0.2009",1.599 ± 0.025 mPa·s
same,viscosity,"[2]; 318.15 K, x2 = 0.2984",1.751 ± 0.027 mPa·s
same,viscosity,"[2]; 318.15 K, x2 = 0.4047",1.957 ± 0.03 mPa·s
same,viscosity,"[2]; 318.15 K, x2 = 0.5054",2.154 ± 0.033 mPa·s
same,viscosity,"[2]; 318.15 K, x2 = 0.6055",2.298 ± 0.035 mPa·s
same,viscosity,"[2]; 318.15 K, x2 = 0.7092",2.363 ± 0.036 mPa·s
same,viscosity,"[2]; 318.15 K, x2 = 0.8063",2.353 ± 0.036 mPa·s
same,viscosity,"[2]; 318.15 K, x2 = 0.9074",2.202 ± 0.034 mPa·s
same,viscosity,"[2]; 323.15 K, x2 = 0",1.116 ± 0.018 mPa·s
same,viscosity,"[2]; 323.15 K, x2 = 0.0975",1.281 ± 0.02 mPa·s
same,viscosity,"[2]; 323.15 K, x2 = 0.2009",1.415 ± 0.022 mPa·s
same,viscosity,"[2]; 323.15 K, x2 = 0.2984",1.533 ± 0.024 mPa·s
same,viscosity,"[2]; 323.15 K, x2 = 0.4047",1.709 ± 0.026 mPa·s
same,viscosity,"[2]; 323.15 K, x2 = 0.5054",1.891 ± 0.029 mPa·s
same,viscosity,"[2]; 323.15 K, x2 = 0.6055",2.041 ± 0.031 mPa·s
same,viscosity,"[2]; 323.15 K, x2 = 0.7092",2.1 ± 0.032 mPa·s
same,viscosity,"[2]; 323.15 K, x2 = 0.8063",2.094 ± 0.032 mPa·s
same,viscosity,"[2]; 323.15 K, x2 = 0.9074",1.954 ± 0.03 mPa·s
COCCO [2-methoxyethan-1-ol] + NC=O,viscosity,"[2]; 303.15 K, x2 = 0",1.421 ± 0.022 mPa·s
same,viscosity,"[2]; 308.15 K, x2 = 0",1.249 ± 0.02 mPa·s
same,viscosity,"[2]; 313.15 K, x2 = 0",1.173 ± 0.019 mPa·s
same,viscosity,"[2]; 318.15 K, x2 = 0",1.079 ± 0.017 mPa·s
same,viscosity,"[2]; 323.15 K, x2 = 0",0.9347 ± 0.015 mPa·s
NC=O [formamide] + CCOCCO,viscosity,"[2]; 303.15 K, x1 = 1",2.877 ± 0.044 mPa·s
same,viscosity,"[2]; 308.15 K, x1 = 1",2.544 ± 0.039 mPa·s
same,viscosity,"[2]; 313.15 K, x1 = 1",2.356 ± 0.036 mPa·s
same,viscosity,"[2]; 318.15 K, x1 = 1",2.061 ± 0.032 mPa·s
same,viscosity,"[2]; 323.15 K, x1 = 1",1.835 ± 0.029 mPa·s
NC=O [formamide] + COCCO,viscosity,"[2]; 303.15 K, x1 = 0.1785",1.795 ± 0.027 mPa·s
same,viscosity,"[2]; 303.15 K, x1 = 0.2723",1.993 ± 0.03 mPa·s
same,viscosity,"[2]; 303.15 K, x1 = 0.3849",2.237 ± 0.034 mPa·s
same,viscosity,"[2]; 303.15 K, x1 = 0.4862",2.47 ± 0.037 mPa·s
same,viscosity,"[2]; 303.15 K, x1 = 0.5726",2.665 ± 0.04 mPa·s
same,viscosity,"[2]; 303.15 K, x1 = 0.6651",2.849 ± 0.043 mPa·s
same,viscosity,"[2]; 303.15 K, x1 = 0.7492",2.927 ± 0.044 mPa·s
same,viscosity,"[2]; 303.15 K, x1 = 0.8363",2.968 ± 0.045 mPa·s
same,viscosity,"[2]; 303.15 K, x1 = 0.9138",2.965 ± 0.045 mPa·s
same,viscosity,"[2]; 303.15 K, x1 = 1",2.877 ± 0.044 mPa·s
same,viscosity,"[2]; 308.15 K, x1 = 0.1785",1.573 ± 0.024 mPa·s
same,viscosity,"[2]; 308.15 K, x1 = 0.2723",1.749 ± 0.027 mPa·s
same,viscosity,"[2]; 308.15 K, x1 = 0.3849",1.966 ± 0.03 mPa·s
same,viscosity,"[2]; 308.15 K, x1 = 0.4862",2.158 ± 0.033 mPa·s
same,viscosity,"[2]; 308.15 K, x1 = 0.5726",2.322 ± 0.035 mPa·s
same,viscosity,"[2]; 308.15 K, x1 = 0.6651",2.504 ± 0.038 mPa·s
same,viscosity,"[2]; 308.15 K, x1 = 0.7492",2.593 ± 0.039 mPa·s
same,viscosity,"[2]; 308.15 K, x1 = 0.8363",2.614 ± 0.04 mPa·s
same,viscosity,"[2]; 308.15 K, x1 = 0.9138",2.609 ± 0.04 mPa·s
same,viscosity,"[2]; 308.15 K, x1 = 1",2.544 ± 0.039 mPa·s
same,viscosity,"[2]; 313.15 K, x1 = 0.1785",1.453 ± 0.023 mPa·s
same,viscosity,"[2]; 313.15 K, x1 = 0.2723",1.623 ± 0.025 mPa·s
same,viscosity,"[2]; 313.15 K, x1 = 0.3849",1.813 ± 0.028 mPa·s
same,viscosity,"[2]; 313.15 K, x1 = 0.4862",1.988 ± 0.03 mPa·s
same,viscosity,"[2]; 313.15 K, x1 = 0.5726",2.131 ± 0.033 mPa·s
same,viscosity,"[2]; 313.15 K, x1 = 0.6651",2.264 ± 0.035 mPa·s
same,viscosity,"[2]; 313.15 K, x1 = 0.7492",2.323 ± 0.036 mPa·s
same,viscosity,"[2]; 313.15 K, x1 = 0.8363",2.361 ± 0.036 mPa·s
same,viscosity,"[2]; 313.15 K, x1 = 0.9138",2.36 ± 0.036 mPa·s
same,viscosity,"[2]; 313.15 K, x1 = 1",2.356 ± 0.036 mPa·s
same,viscosity,"[2]; 318.15 K, x1 = 0.1785",1.313 ± 0.021 mPa·s
same,viscosity,"[2]; 318.15 K, x1 = 0.2723",1.46 ± 0.023 mPa·s
same,viscosity,"[2]; 318.15 K, x1 = 0.3849",1.626 ± 0.025 mPa·s
same,viscosity,"[2]; 318.15 K, x1 = 0.4862",1.769 ± 0.027 mPa·s
same,viscosity,"[2]; 318.15 K, x1 = 0.5726",1.885 ± 0.029 mPa·s
same,viscosity,"[2]; 318.15 K, x1 = 0.6651",1.988 ± 0.031 mPa·s
same,viscosity,"[2]; 318.15 K, x1 = 0.7492",2.046 ± 0.032 mPa·s
same,viscosity,"[2]; 318.15 K, x1 = 0.8363",2.07 ± 0.032 mPa·s
same,viscosity,"[2]; 318.15 K, x1 = 0.9138",2.057 ± 0.032 mPa·s
same,viscosity,"[2]; 318.15 K, x1 = 1",2.061 ± 0.032 mPa·s
same,viscosity,"[2]; 323.15 K, x1 = 0.1785",1.129 ± 0.018 mPa·s
same,viscosity,"[2]; 323.15 K, x1 = 0.2723",1.27 ± 0.02 mPa·s
same,viscosity,"[2]; 323.15 K, x1 = 0.3849",1.421 ± 0.022 mPa·s
same,viscosity,"[2]; 323.15 K, x1 = 0.4862",1.566 ± 0.025 mPa·s
same,viscosity,"[2]; 323.15 K, x1 = 0.5726",1.661 ± 0.026 mPa·s
same,viscosity,"[2]; 323.15 K, x1 = 0.6651",1.75 ± 0.027 mPa·s
same,viscosity,"[2]; 323.15 K, x1 = 0.7492",1.806 ± 0.028 mPa·s
same,viscosity,"[2]; 323.15 K, x1 = 0.8363",1.842 ± 0.029 mPa·s
same,viscosity,"[2]; 323.15 K, x1 = 0.9138",1.83 ± 0.029 mPa·s
same,viscosity,"[2]; 323.15 K, x1 = 1",1.835 ± 0.029 mPa·s
NC=O [formamide],viscosity,[1]; 303.15 K,2.877 ± 0.044 mPa·s
same,mass density,[1]; 303.15 K,1124.57 ± 0.94 kg/m3
same,viscosity,[1]; 308.15 K,2.544 ± 0.039 mPa·s
same,mass density,[1]; 308.15 K,1120.19 ± 0.97 kg/m3
same,viscosity,[1]; 313.15 K,2.356 ± 0.036 mPa·s
same,mass density,[1]; 313.15 K,1115.22 ± 0.98 kg/m3
same,viscosity,[1]; 318.15 K,2.061 ± 0.032 mPa·s
same,mass density,[1]; 318.15 K,1110.95 ± 1 kg/m3
same,viscosity,[1]; 323.15 K,1.835 ± 0.029 mPa·s
same,mass density,[1]; 323.15 K,1105.47 ± 1.1 kg/m3
